Measured values as given in ChEMBL document CHEMBL1158453 (J Med Chem, 2009).
Each block holds one molecule with its values, some of them ahead of it.

Columns and labels:
[1] = Chemical stability in 15 mM hydrogen peroxide solution at pH 7.4 at 37 degC assessed as half life by HPLC; format: physicochemical
Rattus norvegicus [2] = experiment: Tmax in Wistar rat plasma assessed as metformin level at 100 mg/kg, po; format: ADME, organism-based; design: dose 100 mg/kg, route oral; settings: in vivo
[3] = Metabolic stability in rat serum assessed as compound degradation to metformin after 24 hrs by HPLC; format: ADME, cell-free; settings: read-out: Activity
Rattus norvegicus [4] = experiment: AUC (0 to infinity) in Wistar rat plasma assessed as metformin level at 100 mg/kg, po; format: ADME, organism-based; design: time infinity, dose 100 mg/kg, route oral; settings: in vivo
[5] = Chemical stability in 50 mM phosphate buffer at pH 7.4 at 37 degC assessed as compound degradation to metformin after 4 weeks by HPLC; format: physicochemical; settings: read-out: Activity
[6] = Octanol-water distribution coefficient, log D at pH 7.4 by HPLC; format: physicochemical
[7] = Metabolic stability in 20% rat liver homogenate assessed as compound degradation to metformin after 24 hrs by HPLC; format: ADME, tissue-based; settings: 20% liver homogenate, read-out: Activity
[8] = Metabolic stability in human serum assessed as compound degradation to metformin after 24 hrs by HPLC; format: ADME, cell-free; settings: read-out: Activity
Rattus norvegicus [9] = experiment: Tmax in Wistar rat plasma assessed as metformin level at 67 mg/kg, iv; format: ADME, organism-based; design: dose 67 mg/kg, route intravenous; settings: in vivo
[10] = Chemical stability in 50 mM borate buffer at pH 9.0 at 37 degC assessed as compound degradation to metformin after 4 weeks by HPLC; format: physicochemical; settings: read-out: Activity
[11] = Chemical stability in 50 mM acetate buffer at pH 4.0 at 37 degC assessed as compound degradation to metformin after 4 weeks by HPLC; format: physicochemical; settings: read-out: Activity
Rattus norvegicus [12] = experiment: Cmax in Wistar rat plasma assessed as metformin level at 100 mg/kg, po; format: ADME, organism-based; design: dose 100 mg/kg, route oral; settings: in vivo
Rattus norvegicus [13] = experiment: Oral bioavailability in Wistar rat assessed as metformin level at 100 mg/kg; format: ADME, organism-based; settings: in vivo
Rattus norvegicus [14] = experiment: AUC (0 to infinity) in Wistar rat plasma assessed as metformin level at 67 mg/kg, iv; format: ADME, organism-based; design: time infinity, dose 67 mg/kg, route intravenous; settings: in vivo
Rattus norvegicus [15] = experiment: Cmax in Wistar rat plasma assessed as metformin level at 67 mg/kg, iv; format: ADME, organism-based; design: dose 67 mg/kg, route intravenous; settings: in vivo
[16] = Chemical stability in 50 mM HCl buffer at pH 1.0 at 37 degC assessed as half life by HPLC; format: physicochemical
[17] = Octanol-water distribution coefficient, log D at pH 4 by HPLC; format: physicochemical
[18] = Chemical stability in 50 mM borate buffer at pH 9.0 at 37 degC assessed as half life by HPLC; format: physicochemical
Serum = experiment: Metabolic stability in human serum assessed as half life by HPLC; format: ADME, cell-free
[19] = Chemical stability in 50 mM phosphate buffer at pH 7.4 at 37 degC assessed as half life by HPLC; format: physicochemical
[20] = Metabolic stability in rat serum assessed as half life by HPLC; format: ADME, cell-free
[21] = Chemical stability in 50 mM acetate buffer at pH 4.0 at 37 degC assessed as half life by HPLC; format: physicochemical
[22] = Metabolic stability in 20% rat liver homogenate assessed as half life by HPLC; format: ADME, tissue-based; settings: 20% liver homogenate
in vivo [23] = settings: Wistar, rat, plasma, po, 140 mg/kg
Description: Tmax in Wistar rat plasma at 140 mg/kg, po

in vivo [24] = settings: Wistar, rat, plasma, po, 140 mg/kg; remark: listed apart in the source
Description: Cmax in Wistar rat plasma at 140 mg/kg, po

[25] = Tmax in Wistar rat plasma at 35 mg/kg, iv; format: ADME, organism-based; design: dose 35 mg/kg, route intravenous
in vivo [26] = settings: Wistar, rat, plasma, po, 140 mg/kg; remark: listed apart in the source
Description: AUC (0 to infinity) in Wistar rat plasma at 140 mg/kg, po

[27] = Cmax in Wistar rat plasma at 35 mg/kg, iv; format: ADME, organism-based; design: dose 35 mg/kg, route intravenous
Rattus norvegicus [28] = experiment: AUC (0 to infinity) in Wistar rat plasma at 35 mg/kg, iv; format: ADME, organism-based; design: time infinity, dose 35 mg/kg, route intravenous; settings: in vivo

- half-life [1]: 35.8 min
- Tmax (Rattus norvegicus [2]): 60 min
- metabolised at 24 h [3]: 10%
- AUC (Rattus norvegicus [4]): 275 µg·min/mL
- degraded at 672 h [5]: 10%
- logD [6]: 0.49
- metabolised at 24 h [7]: 10%
- metabolised at 24 h [8]: 10%
- Tmax (Rattus norvegicus [9]): 10 min
- degraded at 672 h [10]: 40%
- degraded at 672 h [11]: 10%
- Cmax (Rattus norvegicus [12]): 1300 ng/mL
- F (Rattus norvegicus [13]): 64.5%
- AUC (Rattus norvegicus [14]): 291 µg·min/mL
- Cmax (Rattus norvegicus [15]): 3000 ng/mL
- half-life [16]: 478 min
- logD [17]: -1.1
Structure (SMILES): CN(C)C(=N)/N=C(\N)NSC1CCCCC1

- half-life [1]: 14.2 min
- half-life [18]: 18.1 min
- t1/2 (Serum): 0.0623 min
- half-life [19]: 78.6 h
- logD [6]: -0.76
- half-life [20]: 36.8 min
- half-life [21]: 78.6 h
- half-life [22]: 0.25 min
- half-life [16]: 12.1 min
- logD [17]: -0.7
Structure (SMILES): CN(C)C(=N)/N=C(\N)NSc1ccccc1

- Tmax (in vivo [23]): 50 min
- Cmax (in vivo [24]): 1700 ng/mL
- Tmax [25]: 1 min
- AUC(0-inf) (in vivo [26]): 4820 ng·h/mL
- Cmax [27]: 20900 ng/mL
- AUC (Rattus norvegicus [28]): 170 µg·min/mL
Structure (SMILES): CN(C)C(=N)N=C(N)N [METFORMIN]
